Data: ChEMBL document CHEMBL5321289, “Establishment of an MR1 Presentation Reporter Screening System and Identification of Phenylpropanoid Derivatives as MR1 Ligands” (J Med Chem, 2023)
The source made the active and inactive calls. The rule behind the calls is not given here.

System: HEK293
Assay: Induction of cell surface translocation of MR1 in human HEK293 cells expressing N-terminal HiBit-tagged human beta2m/MR1 assessed as increase in MR1 cell surface expression level at 10 uM incubated for 8 hrs followed by labeling with PE-conjugated anti-hMR1 antibody by flow cytometry analysis
Assay type: functional, cell-based
Conditions: not given

Compound | Activity
O=Cc1ccc(O)c(C(=O)O)c1 | Active
CC(=O)/C=N/c1c(NC[C@H](O)[C@H](O)[C@H](O)CO)[nH]c(=O)[nH]c1=O | Active
CC(=O)Nc1nc(O)c2nc(C=O)cnc2n1 | Active

System: TG40 cell
Assay: Activation of mouse TG40 cells transfected with MAIT-alpha/betaTCR co-cultured with human HEK293 cells expressing N-terminal HiBit-tagged human beta2m/MR1 assessed as upregulation of CD69 surface expression on TG40 cells at 1 uM incubated for 24 hrs by flow cytometry
Assay type: functional, cell-based
Conditions: not given

Compound | Activity
CC(=O)/C=N/c1c(NC[C@H](O)[C@H](O)[C@H](O)CO)[nH]c(=O)[nH]c1=O | Active

System: TG40 cell
Assay: Activation of mouse TG40 cells transfected with MAIT-alpha/betaTCR co-cultured with human HEK293 cells expressing N-terminal HiBit-tagged human beta2m/MR1 assessed as upregulation of CD69 surface expression on TG40 cells at 10 uM incubated for 24 hrs by flow cytometry
Assay type: functional, cell-based
Conditions: not given

Compound | Activity
CC(=O)Nc1nc(O)c2nc(C=O)cnc2n1 | inactive

System: TG40 cell
Assay: Activation of mouse TG40 cells transfected with MAIT-alpha/betaTCR co-cultured with human […] expressing N-terminal HiBit-tagged human beta2m/MR1 assessed as upregulation of CD69 surface expression […] at 1 uM incubated for 24 hrs by flow cytometry
Assay type: functional, cell-based
Conditions: not given

Compound | Activity
CC(=O)/C=N/c1c(NC[C@H](O)[C@H](O)[C@H](O)CO)[nH]c(=O)[nH]c1=O | inactive

System: HeLa
Assay: Induction of cell surface translocation of MR1 in human HeLa overexpressing MR1 assessed as increase in MR1 cell surface levels at 0.1 to 10 uM incubated for 8 hrs followed by labeling with PE-conjugated anti-hMR1 antibody by flow cytometry analysis
Assay type: functional, cell-based
Conditions: dose 0.1-10 µM

Compound | Activity
O=Cc1c(O)cccc1I | Dose-Dependent Effect
CC(C)(C)c1cc(C=O)c(O)c(C=O)c1 | Dose-Dependent Effect
COCCOC(=O)/C(=C\c1cc(C(C)(C)C)c(O)c(C(C)(C)C)c1)C(C)=O | Dose-Dependent Effect
COc1cc(I)c(C=O)cc1OC | Dose-Dependent Effect
COc1cc(/C=C/C=O)ccc1O [CONIFERYL ALDEHYDE] | Dose-Dependent Effect
COc1cc(C#C[Si](C)(C)C)c(C=O)cc1OC | Dose-Dependent Effect
O=Cc1ccccc1C#C/C=C/CO | Dose-Dependent Effect

System: TG40 cell
Assay: Activation of mouse TG40 cells transfected with MAIT-alpha/betaTCR co-cultured with human HeLa cells overexpressing human MR1 assessed as upregulation of CD69 surface expression […] at 10 uM incubated for 24 hrs by flow cytometry
Assay type: functional, cell-based
Conditions: not given

Compound | Activity
O=Cc1c(O)cccc1I | inactive
COc1cc(O)ccc1/C=C/C=O | inactive
CC(C)(C)c1cc(C=O)c(O)c(C=O)c1 | inactive
COCCOC(=O)/C(=C\c1cc(C(C)(C)C)c(O)c(C(C)(C)C)c1)C(C)=O | inactive
COc1cc(I)c(C=O)cc1OC | inactive
COc1cc(/C=C/C=O)c(OC)cc1O | inactive
COc1cc(/C=C/C=O)ccc1O [CONIFERYL ALDEHYDE] | inactive
COc1cc(C#C[Si](C)(C)C)c(C=O)cc1OC | inactive
O=Cc1ccccc1C#C/C=C/CO | inactive
O=C/C=C/c1ccc(O)c(O)c1 [CAFFEOYL ALDEHYDE] | inactive

System: HeLa
Assay: Induction of cell surface translocation of MR1 in human HeLa overexpressing MR1 assessed as increase in MR1 cell surface levels at 10 uM incubated for 8 hrs followed by labeling with PE-conjugated anti-hMR1 antibody by flow cytometry analysis
Assay type: functional, cell-based
Conditions: not given

Compound | Activity
CCCCCC/C(C=O)=C\c1ccccc1 | inactive
COc1ccc(/C=C/C=O)cc1O | inactive
CN(C)c1cc(/C=C/C=O)ccc1O | inactive
COc1cc(/C=C/C=O)cc2c1OCO2 | inactive
COc1cc(O)ccc1/C=C/C=O | Active
COc1ccc(/C=C(\C)C=O)cc1 | inactive
O=CC1=Cc2ccc(O)cc2OC1 | inactive
COc1cc(/C=C/C(C)=O)ccc1O | inactive
COc1cc(CCC=O)ccc1O | inactive
O=C/C=C/c1ccccc1 | inactive
COc1cc(/C=C/C=O)c(OC)cc1O | Active
COc1cc(/C=C/C=O)cc(OC)c1O | inactive
COc1ccc(O)c(/C=C/C=O)c1 | inactive
COc1cc(/C=C/C=C/C=O)ccc1O | inactive
COc1cc(/C=C/C(=O)O)ccc1O | inactive
O=C/C=C/c1ccccc1O | inactive
O=C/C=C/c1ccc(O)cc1 | inactive
COc1cc(/C=C/C#N)ccc1O | inactive
O=C/C=C/c1ccc(O)c(O)c1 [CAFFEOYL ALDEHYDE] | Active
COc1cc(/C=C/C=O)c(OC)c2c1OCO2 | inactive
COc1ccc(/C=C/C=O)cc1 | inactive
COc1cccc(/C=C/C=O)c1 | inactive
COc1cc(C=O)ccc1O | inactive
Cc1ccc(/C=C/C=O)cc1 | inactive
COc1ccccc1/C=C/C=O | inactive
COc1cc(/C=C/C=O)c[nH]c1=O | inactive
CC(C)=CCc1cc(/C=C/C=O)ccc1O | inactive

System: not listed separately
Assay: Induction of cell surface translocation of MR1 in human HeLa overexpressing MR1 assessed as increase in MR1 cell surface levels incubated for 8 hrs followed by labeling with PE-conjugated anti-hMR1 antibody by flow cytometry analysis
Assay type: functional, cell-based
Conditions: not given

Compound | EC50
COc1cc(O)ccc1/C=C/C=O | 5.27 µM
CC(=O)Nc1nc(O)c2nc(C=O)cnc2n1 | 0.153 µM
COc1cc(/C=C/C=O)c(OC)cc1O | 3.89 µM
COc1cc(/C=C/C=O)ccc1O [CONIFERYL ALDEHYDE] | 9.03 µM
O=C/C=C/c1ccc(O)c(O)c1 [CAFFEOYL ALDEHYDE] | 2.58 µM
Nc1nc2ncc(C=O)nc2c(=O)[nH]1 | 1.63 µM

System: not listed separately
Assay: Inhibition of 5-OR-RU induced activation of mouse TG40 cells transfected with MAIT-alpha/betaTCR co-cultured with human HeLa cells overexpressing human MR1 assessed as upregulation of CD69 surface expression […] incubated for 24 hrs by flow cytometry
Assay type: functional, cell-based
Conditions: TG40 cell

Compound | IC50
COc1cc(O)ccc1/C=C/C=O | 7.93 µM
CC(=O)Nc1nc(O)c2nc(C=O)cnc2n1 | 0.017 µM
COc1cc(/C=C/C=O)c(OC)cc1O | 7.34 µM
COc1cc(/C=C/C=O)ccc1O [CONIFERYL ALDEHYDE] | 11.6 µM
Nc1nc2ncc(C=O)nc2c(=O)[nH]1 | 0.505 µM

System: HeLa
Assay: Cytotoxicity against human HeLa cells overexpressing MR1 assessed as reduction in cell viability at 3 to 100 uM incubated for 8 hrs by MTS assay
Assay type: toxicity, cell-based
Conditions: dose 3-100 µM

Compound | Activity
COc1cc(O)ccc1/C=C/C=O | Non-Toxic
CC(=O)Nc1nc(O)c2nc(C=O)cnc2n1 | Non-Toxic
COc1cc(/C=C/C=O)c(OC)cc1O | Non-Toxic
COc1cc(/C=C/C=O)ccc1O [CONIFERYL ALDEHYDE] | Non-Toxic
O=C/C=C/c1ccc(O)c(O)c1 [CAFFEOYL ALDEHYDE] | Non-Toxic
Nc1nc2ncc(C=O)nc2c(=O)[nH]1 | Non-Toxic

System: HeLa
Assay: Cytotoxicity against human HeLa cells overexpressing MR1 assessed as reduction in cell viability at 3 to 100 uM incubated for 24 hrs by MTS assay
Assay type: toxicity, cell-based
Conditions: dose 3-100 µM

Compound | Activity
COc1cc(O)ccc1/C=C/C=O | Non-Toxic
CC(=O)Nc1nc(O)c2nc(C=O)cnc2n1 | Non-Toxic
COc1cc(/C=C/C=O)c(OC)cc1O | Non-Toxic
COc1cc(/C=C/C=O)ccc1O [CONIFERYL ALDEHYDE] | Non-Toxic
O=C/C=C/c1ccc(O)c(O)c1 [CAFFEOYL ALDEHYDE] | Non-Toxic
Nc1nc2ncc(C=O)nc2c(=O)[nH]1 | Non-Toxic

System: not listed separately
Assay: Cytotoxicity against mouse TG40 cells transfected with MAIT-alpha/betaTCR assessed as reduction in cell viability at 3 to 10 uM incubated for 24 hrs by MTS assay
Assay type: toxicity, cell-based
Conditions: dose 3-10 µM

Compound | Activity
COc1cc(O)ccc1/C=C/C=O | Non-Toxic
CC(=O)Nc1nc(O)c2nc(C=O)cnc2n1 | Non-Toxic
COc1cc(/C=C/C=O)c(OC)cc1O | Non-Toxic
COc1cc(/C=C/C=O)ccc1O [CONIFERYL ALDEHYDE] | Non-Toxic
O=C/C=C/c1ccc(O)c(O)c1 [CAFFEOYL ALDEHYDE] | Non-Toxic
Nc1nc2ncc(C=O)nc2c(=O)[nH]1 | Non-Toxic

System: not listed separately
Assay: Cytotoxicity against mouse TG40 cells transfected with MAIT-alpha/betaTCR assessed as reduction in cell viability at 30 to 100 uM incubated for 24 hrs by MTS assay
Assay type: toxicity, cell-based
Conditions: dose 30-100 µM

Compound | Activity
COc1cc(O)ccc1/C=C/C=O | Toxic
CC(=O)Nc1nc(O)c2nc(C=O)cnc2n1 | Toxic
COc1cc(/C=C/C=O)c(OC)cc1O | Toxic
COc1cc(/C=C/C=O)ccc1O [CONIFERYL ALDEHYDE] | Toxic
O=C/C=C/c1ccc(O)c(O)c1 [CAFFEOYL ALDEHYDE] | Toxic
Nc1nc2ncc(C=O)nc2c(=O)[nH]1 | Toxic

System: HeLa
Assay: Effect on MR1-specific presentation in human HeLa overexpressing MR1 assessed as increase in HLA-A/B/C cell surface levels incubated for 8 hrs followed by labeling with PE-conjugated anti-hMR1 antibody and APC-conjugated anti-HLA-A/B/C antibody by flow cytometry analysis
Assay type: functional, cell-based
Conditions: not given

Compound | Activity
COc1cc(O)ccc1/C=C/C=O | inactive
CC(=O)Nc1nc(O)c2nc(C=O)cnc2n1 | inactive
COc1cc(/C=C/C=O)c(OC)cc1O | inactive
COc1cc(/C=C/C=O)ccc1O [CONIFERYL ALDEHYDE] | inactive
O=C/C=C/c1ccc(O)c(O)c1 [CAFFEOYL ALDEHYDE] | inactive
